The values below are quoted from earlier work in paper PMC11876601 (Molecular Systems Biology, 2025).

For one data set, the system named is MAPKAPK5. On the set-up: method as in Reinecke et al. (2023). The note with it: MAPKAPK5, 5 cell line mix lysate, Kinobeads ε, ref Reinecke et al. (2023), cited from earlier work.
The next data set concerns the target PRKCD. On the set-up: method as in Reinecke et al. (2023). The note with it: 5 cell line mix lysate, Kinobeads ε, ref Reinecke et al. (2023), cited from earlier work.
Another data set concerns NUAK1. On the set-up: method as in Reinecke et al. (2023). The following applies: NUAK1, 5 cell line mix lysate, Kinobeads ε, ref Reinecke et al. (2023); cited from earlier work.
The test system of the next data set is PRKAB2. On the set-up: method as in Reinecke et al. (2023). The note with it: PRKAB2, 5 cell line mix lysate, Kinobeads ε, ref Reinecke et al. (2023), cited from earlier work.
For another data set, the system named is NUAK2. On the set-up: method as in Reinecke et al. (2023). The following applies: NUAK2, 5 cell line mix lysate, Kinobeads ε, ref Reinecke et al. (2023), cited from earlier work.
For another data set, the system named is MAPK9. On the set-up: method as in Reinecke et al. (2023). The following applies: MAPK9, 5 cell line mix lysate, Kinobeads ε, ref Reinecke et al. (2023), cited from earlier work.
The next data set concerns PHKG2. The following applies: PHKG2, 5 cell line mix lysate, Kinobeads ε, ref Reinecke et al. (2023), cited from earlier work.
Another data set deals with FES. On the set-up: method as in Reinecke et al. (2023). The following applies: 5 cell line mix lysate, Kinobeads ε, ref Reinecke et al. (2023), cited from earlier work.
A further data set deals with PRKAG2. On the set-up: method as in Reinecke et al. (2023). The note with it: PRKAG2, 5 cell line mix lysate, Kinobeads ε, ref Reinecke et al. (2023), cited from earlier work.
Another data set has as its system JAK2. On the set-up: method as in Reinecke et al. (2023). The following applies: JAK2, 5 cell line mix lysate, Kinobeads ε, ref Reinecke et al. (2023), cited from earlier work.
For another data set, the system named is TRAF2. On the set-up: method as in Reinecke et al. (2023). The following applies: TRAF2, 5 cell line mix lysate, Kinobeads ε, ref Reinecke et al. (2023), cited from earlier work.
The test system of another data set is ABL2. On the set-up: method as in Reinecke et al. (2023). The note with it: ABL2, 5 cell line mix lysate, Kinobeads ε, ref Reinecke et al. (2023), cited from earlier work.
A further data set addresses CSNK2B. The following applies: 5 cell line mix lysate, Kinobeads ε, ref Reinecke et al. (2023), cited from earlier work.
The next data set has as its system PDGFRB. On the set-up: method as in Klaeger et al. (2017). The following applies: lysate 4 cell line mix (Colo205, K-562, MV-4-11, and SK-N-BE(2)), Kinobeads y, ref Klaeger et al. (2017); cited from earlier work.
Another data set deals with AP2A1. On the set-up: method as in Klaeger et al. (2017). The note with it: AP2A1, 4 cell line mix lysate, Kinobeads y, ref Klaeger et al. (2017); cited from earlier work.
For another data set, the system named is BTK. On the set-up: method as in Klaeger et al. (2017). The note with it: lysate 4 cell line mix (Colo205, K-562, MV-4-11, and SK-N-BE(2)), Kinobeads y, ref Klaeger et al. (2017); cited from earlier work.
In the next data set the test system is SLK. On the set-up: method as in Klaeger et al. (2017). The following applies: lysate 4 cell line mix (Colo205, K-562, MV-4-11, and SK-N-BE(2)), Kinobeads y, ref Klaeger et al. (2017); cited from earlier work.
Another data set has as its system CDK5. On the set-up: method as in Klaeger et al. (2017). The note with it: lysate 4 cell line mix (Colo205, K-562, MV-4-11, and SK-N-BE(2)), Kinobeads y, ref Klaeger et al. (2017); cited from earlier work.
Another data set deals with ACVR1. On the set-up: method as in Klaeger et al. (2017). The following applies: lysate 4 cell line mix (Colo205, K-562, MV-4-11, and SK-N-BE(2)), Kinobeads y, ref Klaeger et al. (2017); cited from earlier work.
A further data set concerns STK3. On the set-up: method as in Klaeger et al. (2017). The following applies: STK3, 4 cell line mix lysate, Kinobeads y, ref Klaeger et al. (2017); cited from earlier work.
Another data set relates to PRKCA. On the set-up: method as in Klaeger et al. (2017). The following applies: lysate 4 cell line mix (Colo205, K-562, MV-4-11, and SK-N-BE(2)), Kinobeads y, ref Klaeger et al. (2017); cited from earlier work.
A further data set deals with MAPK8. On the set-up: method as in Klaeger et al. (2017). The note with it: lysate 4 cell line mix (Colo205, K-562, MV-4-11, and SK-N-BE(2)), Kinobeads y, ref Klaeger et al. (2017); cited from earlier work.

Broadly, the EC50 is the concentration giving half of the maximal effect. Consider `COc1cc(N2CCC(N3CCN(C)CC3)CC2)ccc1Nc1ncc(Cl)c(Nc2ccccc2P(C)(C)=O)n1` [Brigatinib], for which the EC50 in the data set with MAPKAPK5 is 62.7 nM; in the data set on PRKCD, 25800 nM; with NUAK1 it was 532 nM; in the data set with PRKAB2, 546 nM; in the data set with NUAK2, 88.5 nM; with MAPK9 it was 2110 nM. Besides, the EC50 in the data set on PHKG2 is 199 nM; in the data set with FES, 170 nM; with PRKAG2, 510 nM; with JAK2, 4340 nM; in the data set on TRAF2 it was 3940 nM; in the data set with ABL2, 3240 nM. In addition, the EC50 in the data set on CSNK2B was 508 nM. Besides, the pKDapp was 7.23 on MAPKAPK5; 4.61 at PRKCD; 6.48 at PRKAB2; 7.17 at NUAK2; 5.83 at MAPK9; 6.71 on PHKG2. In addition, the pKDapp is listed as 7.20 at FES; 6.48 at PRKAG2; 5.46 on JAK2; 5.48 at TRAF2; 5.97 on ABL2; 6.29 at CSNK2B. Further, the Kd at MAPKAPK5 (read-out: KDapp) was 58.3 nM; on PRKCD (read-out: KDapp) it was 24500 nM; on PRKAB2 (read-out: KDapp) it was 328 nM; at NUAK2 (read-out: KDapp) it was 68.3 nM; at MAPK9 (read-out: KDapp) it was 1480 nM; at PHKG2 (read-out: KDapp) it was 193 nM. Besides, the Kd on FES (read-out: KDapp) was 63 nM; at PRKAG2 (read-out: KDapp), 329 nM; at JAK2 (read-out: KDapp), 3470 nM; on TRAF2 (read-out: KDapp) it was 3280 nM; at ABL2 (read-out: KDapp) it was 1070 nM; on CSNK2B (read-out: KDapp), 508 nM.
With `C[C@]12O[C@H](C[C@]1(O)CO)n1c3ccccc3c3c4c(c5c6ccccc6n2c5c31)CNC4=O` [Lestaurtinib], the EC50 in the data set on PDGFRB is […]; in the data set on AP2A1, 83.7 nM; with BTK, […]; in the data set on SLK, […]; in the data set on CDK5, […]; in the data set on ACVR1, […]. For the same compound, the EC50 in the data set on STK3 is 39.2 nM; in the data set on PRKCA it was 2470 nM; with MAPK8, 1210 nM.
